Laboratory results published in US20110263694A1, “Use of Xanthone Derivatives as a Medicament for Cancer” (MUSEUM NATIONAL D'HISTOIRE NATURELLE, priority 2008, published 2011).

Columns and labels:
ESKOL cells [1] = assay: Antiproliferative effect on ESKOL cells (viable cell count, Coulter counter); assay type: cell-based, human; details: 1 and 10 μg/ml; 1, 2 or 4 days; FIGS. 1A and 1B
Experimental: FIG. 1: The antiproliferative effects of M1, M2, M4, M5 and M6 were compared as indicated in the Examples Section on ESKOL cells. ESKOL cells were seeded at 2×10^5 cells/ml in the wells of micro-titration plate in the presence or absence (medium alone: ◯, DMSO: […]) of M1 (□), M2 (▪), M4 (▴), M5 ([…]), M6 (◯) at the concentrations of 1 μg/ml (A) and 10 μg/ml (B). After various times of incubation (1, 2 or 4 days), aliquots were harvested and the concentration of viable cells was measured in a Coulter counter as indicated in the examples.
The anti-proliferative effects of the isolated molecules were investigated on the ESKOL cell line derived from a hairy cell leukemia patient, a chronic B cell malignancy (Harvey et al, Leuk Res. 1991; 15: 733-744).
Cells were routinely cultured at seeding densities of 2×10^6 cells/ml in RPMI-1640 medium supplemented with 2 mM glutamine, 1 mM sodium pyruvate, 100 IU/ml penicillin, 100 μg/ml streptomycin and 10% FCS (PAA Laboratories, Pasching, Austria) and cultures were performed at 37° C. in an humidified atmosphere containing 5% CO2.
For the assay, ESKOL cells were seeded at 2×10^5/ml in 24-well microtitration plate, together with two concentrations (1 and 10 μg/ml) of the […] xanthones or 1% DMSO (solvent) as control. After 1, 2 and 4 days of culture, aliquots of cells were collected and the cell concentration was evaluated by counting the number of viable cells with a Coulter Multisizer counter Z2 (Coultronics, Margency, France) allowing the discrimination between viable and dead cells and debris according to size distribution.
Cells were cultured in duplicates or triplicates and each experiment repeated 2 to 5 times.

Plasmodium = details: literature; cited from earlier work
ESKOL cells [2] = assay: Enrichment in cytoplasmic nucleosomes (DNA cleavage) in ESKOL cells; assay type: cell-based, human; details: 2 days, 1 or 10 μg/ml; FIG. 2B
Experimental: B/ The percentage of enrichment in cytoplasmic nucleosomes was evaluated simultaneously as a surrogate for DNA cleavage.
The detection of cytoplasmic histone-associated DNA fragments (mono- and oligonucleosomes) was performed in cell lysates from aliquots of 20,000 cells using an ELISA with anti-histone and anti-DNA fragment mAbs (Cell Death Detection ELISA^PLUS, Roche Diagnostics, Indianapolis, Ind., USA) as previously described (Billard et al, Leuk Lymphoma 2002; 43: 1991-2002).

COc1c(O)cc2oc3cc(O)c(CC=C(C)C)c(O)c3c(=O)c2c1CC=C(C)C [M2, α-mangostin]
proliferation of ESKOL cells (ESKOL cells [1]): markedly and dose-dependently slowed down the proliferation
antiplasmodial activity (Plasmodium): displays antiplasmodial activity
DNA breakdown (enrichment in cytoplasmic nucleosomes) in ESKOL cells (ESKOL cells [2]): potent inducers of DNA breakdown
